According to patent US8916571B2, “Methods of treating cancer using inhibitors of 5′-methylthioadenosine phosphorylase” (Albert Einstein College of Medicine of Yeshiva University, priority 2006, dated 2014):
“Also recorded” adds a separate entry of the source.

Tests used:
PC3 cells [1] = test: Time dependent proliferation of PC3 cells (WST-1 assay); format: cell-based, human; settings: 1 μM compound + 20 μM MTA
Experimental: PC3 cells were maintained in MEM Eagle's media supplemented with 10% fetal bovine serum, 100 units/ml penicillin, 100 μg/mL streptomycin, 0.1 mM non essential amino acids and 1 mM sodium pyruvate. Cell survival was evaluated using the WST-1 assay (Kicska G A, long Li, Hong H, et al. Proc Natl Acad Sci USA 2001; 98:4593-98). Cells were seeded onto 96 well plates at a density of 10^4 cells per well, with either no additions, 1 μM compound (2), 20 μM MTA or 1 μM compound (2)+20 μM MTA. IC50 was determined following the manufacturer's protocol (Roche Applied Science, Ind.). Cells were grown and measured in triplicate or quadruplicate and the error bars show the mean±SD of the multiple samples.

PC3 cells [2] = test: Quantitation of polyamines in PC3 cells and spent media (HPLC fluorescence); format: cell-based, human
Experimental: PC3 cells were cultured and treated in triplicate as follows: untreated control, 20 μM substrate (MTA) alone, 1 μM compound (2) alone, or a combination of both substrate and inhibitor. Both cells and spent media were harvested at 1, 6, and 12 days for polyamine analysis by HPLC fluorescence.
(§1) Spent media and perchloric acid extracts of both PC3 cells and tissue samples were subjected to purification via cation exchange chromatography and dansyl-derivatized with minor changes. Disposable 10 ml BIO-RAD columns were centrifuged at 4,000 rpm for 3 minutes. Sodium carbonate used for derivatization was adjusted to pH 9.3 and the concentration of dansyl-chloride was adjusted to 100 mM. Dansyl-polyamines were quantitated by a Waters HPLC/Fluorescence system. A Phenomenex Luna 5μ C18 column was used with a mobile phase of 30% acetonitrile in a 50 mM ammonium acetate buffer at pH 6.8 (eluent A) and 100% acetonitrile (eluent B). Fluorescence detection was monitored by excitation at 338 nm and emission at 500 nm.

FaDu xenografts = test: FaDu xenograft study in NOD-SCID mice; format: in vivo, mouse
Experimental: NOD-SCID mice (6-8 weeks old) were obtained from Jackson Laboratory (Bar Harbor, Me.). FaDu cells (10^6) were inoculated into the dorsum of the hind foot. After 5 days, mice were treated with 9 mg/kg or 21 mg/kg body weight of compound (2) in drinking water or by daily i.p. injections of 5 mg/kg body weight of compound (2). After inoculation mice were assigned to treatment or control groups (n=5). Tumor volume (V) was determined from: V=(4/3)*(22/7)*1/8*(length*width*height). Differences between treatment cohorts were determined using the Student's t test. Mice were weighed every 4-5 days, monitored for hair loss, loss of appetite, vomiting and diarrhea. Total and differential blood and bone marrow analyses were performed after treatment with compound (2).

liver polyamine levels = test: Short-term treatment of mice, liver polyamine analysis; format: in vivo, mouse; settings: short-term treatment (24, 48 hours, 7 days), 100 μM in drinking water
Experimental: C56BI/6 mice were treated with 100 μM compound (2) via their drinking water and sacrificed at 24, 48 hours, and 7 days. Livers were immediately removed for polyamine analysis. TRAMP mice were treated approximately 6-8 months with 100 μM compound (2) via their drinking water and control sacrificed. Livers were removed for polyamine analysis.
as §1
Short-Term: Mice were treated with sterile solutions of 100 μM compound (2) (pH ˜6.4). Water bottles were autoclaved prior to filling with sterile inhibitor solutions. Mice were sacrificed at 1, 2, and 7 days, with three mice in each group, with the control group sacrificed after 7 days. […]

## CSC[C@H]1CN(Cc2c[nH]c3c(N)ncnc23)C[C@@H]1O [compound (2)]
PC3 cells [1]
  cell proliferation: reduces cell proliferation
PC3 cells [2]; 1 μM compound + 20 μM MTA, 1 day
  intracellular PUT levels: 3.03×10^−3±2.86×10^−2 pmoles PUT/mg protein
PC3 cells [2]; compound + MTA, 1 day
  SPN levels in spent media: slightly decreased
  increase in intracellular PUT levels vs control: 6 fold
  increase in intracellular SPD levels vs control: ~2.5 fold
  increase in spent media PUT levels vs control: 2 fold
  intracellular SPD levels: 7.19×10^−3±4.38×10^−2 pmoles SPD/mg protein
  spent media PUT levels: 1.19×10^3±2.04×10^−1 pmoles PUT/mL spent media
PC3 cells [2]; compound + MTA, 6 days
  PUT level vs control: elevated
  SPD level vs control: elevated
  decrease in cellular SPN levels vs control: roughly 0.5 fold
  levels of PUT in spent media: 2.41×10^−3±7.35×10^−1 pmoles PUT/mL spent media
  levels of PUT in spent media relative to control: almost double that of the control
PC3 cells [2]; compound + MTA, day 12
  cellular SPD levels: 9.05×10^−3±1.09×10^−3 pmoles SPD/mg protein
  intracellular PUT levels vs controls: significantly higher than controls
FaDu xenografts; 28 days after end of 28 day therapy, two highest doses
  regrowth of tumor after treatment removed: no regrowth of tumor
FaDu xenografts; NOD-SCID mice, after 28 day treatment
  animal weight, total and differential blood counts vs control: No significant differences
FaDu xenografts; NOD-SCID mice, oral or i.p., with or without MTA
  growth of established FaDu xenografts: significantly slower than in controls; also recorded: significantly delays the growth
Liver polyamine levels
  polyamine levels of mice livers: not significantly altered
